# Assay results published in ChEMBL document CHEMBL5375955, “Discovery of New Fusobacterium nucleatum Inhibitors to Attenuate Migratory Capability of Colon Cancer Cells by the Drug Repositioning Strategy” (J Med Chem, 2023).
# Calls of active or inactive are those of the source. The rule behind the calls is not given here.
# Columns and labels:
# [1] = tested on: Fusobacterium nucleatum; assay: Antibacterial activity against Fusobacterium nucleatum ATCC 23726 assessed as bacterial growth inhibition incubated for 48 hrs by broth dilution susceptibility test; type: functional
# [2] = tested on: MC-38; assay: Antiproliferative activity against mouse MC-38 cells assessed as inhibition of cell growth incubated for 48 hrs by CCK-8 assay; type: functional, cell-based; settings: MC-38, 48 h
# [3] = tested on: HCT-116; assay: Antiproliferative activity against human HCT-116 cells assessed as inhibition of cell growth incubated for 48 hrs by CCK-8 assay; type: functional, cell-based; settings: HCT-116, 48 h
# [4] = Cytotoxicity against HUVEC cells assessed as inhibition of cell growth incubated for 48 hrs by CCK-8 assay; type: toxicity, cell-based; settings: human
# [5] = Cytotoxicity against human L02 cells assessed as inhibition of cell growth incubated for 48 hrs by CCK-8 assay; type: toxicity, cell-based
# [6] = tested on: MC-38; assay: Potency index, ratio of nitisinone IC50 to test compound IC50 for antiproliferative activity against mouse MC-38 cells assessed as inhibition of cell growth incubated for 48 hrs by CCK-8 assay; type: functional
# [7] = tested on: Fusobacterium nucleatum; assay: Antibacterial activity against Fusobacterium nucleatum ATCC 23726 assessed as bacterial growth inhibition at 4 ug/ml incubated for 72 hrs by turbidimeter analysis; type: functional, organism-based; settings: dose 4.0 µg/ml
# [8] = tested on: Fusobacterium nucleatum; assay: Antibacterial activity against Fusobacterium nucleatum ATCC 23726 assessed as bacterial growth inhibition incubated for 72 hrs by turbidimeter analysis; type: functional, organism-based
# [9] = tested on: Fusobacterium nucleatum; assay: Antibiofilm activity against Fusobacterium nucleatum ATCC 23726 assessed as inhibition of biofilm formation incubated for 48 hrs by crystal violet staining based assay; type: functional, organism-based; settings: dose 0.5-16 µg/ml
# [10] = tested on: Fusobacterium nucleatum; assay: Antibiofilm activity against Fusobacterium nucleatum ATCC 23726 assessed as inhibition of biofilm formation at 1 ug/ml incubated for 48 hrs by crystal violet staining based assay relative to control; type: functional
# [11] = tested on: Escherichia coli; assay: Antibacterial activity against Escherichia coli […] assessed as bacterial growth inhibition incubated for 48 hrs by broth dilution susceptibility test; type: functional
# [12] = tested on: Enterococcus faecalis; assay: Antibacterial activity against Enterococcus faecalis ATCC 29212 assessed as bacterial growth inhibition incubated for 48 hrs by broth dilution susceptibility test; type: functional
# [13] = tested on: Staphylococcus aureus; assay: Antibacterial activity against Staphylococcus aureus ATCC 6538 assessed as bacterial growth inhibition incubated for 48 hrs by broth dilution susceptibility test; type: functional
# [14] = tested on: Peptostreptococcus anaerobius; assay: Antibacterial activity against Peptostreptococcus anaerobius ATCC 27337 assessed as bacterial growth inhibition incubated for 48 hrs by broth dilution susceptibility test; type: functional
# [15] = tested on: Akkermansia muciniphila; assay: Antibacterial activity against Akkermansia muciniphila ATCC BAA-835 assessed as bacterial growth inhibition incubated for 48 hrs by broth dilution susceptibility test; type: functional
# [16] = tested on: Salmonella enterica subsp. enterica serovar Paratyphi B; assay: Antibacterial activity against Salmonella paratyphi B ATCC CMCC50094 assessed as bacterial growth inhibition incubated for 48 hrs by broth dilution susceptibility test; type: functional
# [17] = tested on: Shigella flexneri; assay: Antibacterial activity against Shigella flexneri ATCC 12022 assessed as bacterial growth inhibition incubated for 48 hrs by broth dilution susceptibility test; type: functional
# [18] = tested on: Lactobacillus acidophilus; assay: Antibacterial activity against Lactobacillus acidophilus ATCC CGMCC 1.577 assessed as bacterial growth inhibition incubated for 48 hrs by broth dilution susceptibility test; type: functional
# [19] = tested on: Fusobacterium nucleatum; assay: Inhibition of Fusobacterium nucleatum ATCC 23726 stimulated mouse MC-38 cell migration assessed as reduction in number of migrating cells at 2 to 4 ug/ml incubated for 48 hrs by crystal violet staining based transwell assay; type: functional; settings: dose 2-4 µg/ml
# [20] = tested on: Fusobacterium nucleatum; assay: Antibacterial activity against Fusobacterium nucleatum ATCC 23726 assessed as downregulation of NTR gene expression incubated for 48 hrs by RT-qPCR analysis; type: functional, organism-based
# [21] = tested on: Fusobacterium nucleatum; assay: Antibiofilm activity against Fusobacterium nucleatum ATCC 23726 assessed as downregulation of tnaA gene expression measured after 48 hrs by RT-qPCR analysis; type: functional, organism-based
# [22] = tested on: L02; assay: Downregulation of HPPD gene expression in human L02 cells at 10 to 50 uM incubated for 48 hrs by RT-qPCR analysis; type: functional, cell-based; settings: dose 10-50 µM
# [23] = Acute toxicity in ICR mouse assessed as death rate at 2160 mg/kg, po measured after 7 days; type: organism-based; settings: in vivo, time 7 day, read-out: Activity
# [24] = Acute toxicity in ICR mouse assessed as death rate at 2592 mg/kg, po measured after 7 days; type: organism-based; settings: in vivo, time 7 day, read-out: Activity
# [25] = Acute toxicity in po dosed ICR mouse assessed as animal death measured after 7 days; type: organism-based; settings: in vivo, time 7 day
# [26] = Acute toxicity in po dosed ICR mouse assessed as heart damage at 1500 mg/kg, po measured after 7 days by H and E staining based analysis; type: organism-based; settings: in vivo, 168 h, time 7 day
# [27] = Acute toxicity in po dosed ICR mouse assessed as liver damage at 1500 mg/kg, po measured after 7 days by H and E staining based analysis; type: organism-based; settings: in vivo, 168 h, time 7 day
# [28] = Acute toxicity in po dosed ICR mouse assessed as spleen damage at 1500 mg/kg, po measured after 7 days by H and E staining based analysis; type: organism-based; settings: in vivo, 168 h, time 7 day
# [29] = Acute toxicity in po dosed ICR mouse assessed as lung damage at 1500 mg/kg, po measured after 7 days by H and E staining based analysis; type: organism-based; settings: in vivo, 168 h, time 7 day
# [30] = Acute toxicity in po dosed ICR mouse assessed as kidney damage at 1500 mg/kg, po measured after 7 days by H and E staining based analysis; type: organism-based; settings: in vivo, 168 h, time 7 day
# [31] = Metabolic stability in mouse liver microsomes assessed as half life at 1 uM incubated for 45 mins in presence of NADPH by LC-MS/MS analysis; type: ADME, Microsome
# [32] = Cmax in Sprague-Dawley rat at 1 mg/kg, iv measured upto 24 hrs by LC-MS/MS analysis; type: ADME, organism-based; parameters: dose 1 mg/kg, time < 24 hrs, route iv; settings: in vivo
# [33] = Clearance in Sprague-Dawley rat at 1 mg/kg, iv measured upto 24 hrs by LC-MS/MS analysis; type: ADME, organism-based; settings: in vivo
# [34] = Half life in Sprague-Dawley rat at 1 mg/kg, iv measured upto 24 hrs by LC-MS/MS analysis; type: ADME, organism-based; settings: in vivo
# [35] = Tmax in Sprague-Dawley rat at 20 mg/kg, po measured upto 24 hrs by LC-MS/MS analysis; type: ADME, organism-based; settings: in vivo
# [36] = Oral bioavailability in Sprague-Dawley rat at 20 mg/kg measured upto 24 hrs by LC-MS/MS analysis; type: ADME, organism-based; settings: in vivo
# [37] = Drug metabolism assessed as NTR(unknown origin)-mediated metabolism at 10 mM incubated for 2 hrs in presence of NADH by LC-MS analysis; type: ADME; settings: bacteria, 10000 µM
smiles,measurement,setting,value
O=C(NCc1ccc(Br)nc1)c1ccc([N+](=O)[O-])o1,MIC50,[1],1 µg/mL
same,MIC90,[1],4 µg/mL
same,IC50,[2],11 µM
same,IC50,[3],32 µM
same,IC50 at 48 h,[4],16 µM
same,IC50 at 48 h,[5],16 µM
same,Ratio IC50,[6],8
same,Activity,[7],Active
same,Activity,[8],Dose-Dependent Effect
same,inhibition,[9],Dose-Dependent Effect
same,inhibition at 1 µg/mL,[10],> 50%
same,MIC50,[11],> 64 µg/mL
same,MIC50,[12],> 64 µg/mL
same,MIC50,[13],> 64 µg/mL
same,MIC50,[14],64 µg/mL
same,MIC50,[15],> 64 µg/mL
same,MIC50,[16],> 64 µg/mL
same,MIC50,[17],64 µg/mL
same,MIC50,[18],64 µg/mL
same,inhibition,[19],Active
same,Activity,[20],Dose-Dependent Effect
same,Activity,[21],Dose-Dependent Effect
same,Activity,[22],Active
same,mortality at 168 h,[23],20%
same,mortality at 168 h,[24],70%
same,LD50 at 168 h,[25],2400 mg/kg
same,Activity,[26],Non-Toxic
same,Activity,[27],Non-Toxic
same,Activity,[28],Non-Toxic
same,Activity,[29],Non-Toxic
same,Activity,[30],Non-Toxic
same,half-life at 1 µM,[31],25.1 min
same,Cmax,[32],85 ng/mL
same,clearance,[33],601 mL/min/kg
same,half-life,[34],~4.08 min
same,Tmax,[35],84 min
same,bioavailability,[36],4.2%
same,Drug metabolism,[37],Metabolite_Detected
